Values joined by “and” are separate entries in the source; they are usually repeats but may differ in a detail not shown here. Identical values can stand only once. Active and inactive are the calls of the source.
Columns and labels:
[1] = target: Eukaryotic translation initiation factor 4E (Mus musculus, UniProt P63073); assay: eIF4E–eIF4G protein interaction inhibitors, dose response, biochemical, TR-FRET (AID 855); type: functional;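 further: potency for disrupting eIF4E binding to eIF4GI seen as loss of FRET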
Sequence of Eukaryotic translation initiation factor 4E (P63073 whole entry): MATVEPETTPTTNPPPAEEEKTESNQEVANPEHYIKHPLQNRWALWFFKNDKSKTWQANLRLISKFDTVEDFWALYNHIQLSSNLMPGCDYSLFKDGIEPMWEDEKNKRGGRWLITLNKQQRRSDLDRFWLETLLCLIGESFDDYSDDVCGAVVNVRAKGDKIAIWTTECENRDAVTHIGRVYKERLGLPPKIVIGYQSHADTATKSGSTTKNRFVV

[2] = target: T1, Leucine aminopeptidase (Plasmodium falciparum 3D7, UniProt Q8IL11); assay: P. falciparum M17LAP inhibitors, primary screen, biochemical, fluorogenic H-Leu-NHMec substrate, 1536-well (AID 1619); type: functional
T1 sequence (Q8IL11 whole entry): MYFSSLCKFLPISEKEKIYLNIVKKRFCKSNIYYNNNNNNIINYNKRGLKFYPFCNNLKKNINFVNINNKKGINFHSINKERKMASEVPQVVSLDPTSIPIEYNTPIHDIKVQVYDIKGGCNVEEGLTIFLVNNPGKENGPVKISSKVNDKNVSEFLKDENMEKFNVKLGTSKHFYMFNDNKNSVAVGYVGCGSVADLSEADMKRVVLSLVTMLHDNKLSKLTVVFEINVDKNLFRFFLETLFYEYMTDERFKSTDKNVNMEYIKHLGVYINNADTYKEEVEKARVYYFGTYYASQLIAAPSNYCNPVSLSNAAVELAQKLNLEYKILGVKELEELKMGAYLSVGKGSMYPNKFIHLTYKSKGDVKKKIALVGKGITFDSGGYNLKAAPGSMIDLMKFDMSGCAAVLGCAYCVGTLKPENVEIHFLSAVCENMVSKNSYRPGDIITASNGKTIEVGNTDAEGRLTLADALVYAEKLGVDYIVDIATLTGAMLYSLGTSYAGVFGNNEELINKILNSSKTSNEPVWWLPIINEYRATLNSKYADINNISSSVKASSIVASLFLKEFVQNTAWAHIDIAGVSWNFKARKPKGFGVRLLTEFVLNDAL

[3] = target: T2, Tyrosine-protein phosphatase non-receptor type 22 (Homo sapiens, UniProt Q9Y2R2); type: functional
T2 sequence (Q9Y2R2 whole entry): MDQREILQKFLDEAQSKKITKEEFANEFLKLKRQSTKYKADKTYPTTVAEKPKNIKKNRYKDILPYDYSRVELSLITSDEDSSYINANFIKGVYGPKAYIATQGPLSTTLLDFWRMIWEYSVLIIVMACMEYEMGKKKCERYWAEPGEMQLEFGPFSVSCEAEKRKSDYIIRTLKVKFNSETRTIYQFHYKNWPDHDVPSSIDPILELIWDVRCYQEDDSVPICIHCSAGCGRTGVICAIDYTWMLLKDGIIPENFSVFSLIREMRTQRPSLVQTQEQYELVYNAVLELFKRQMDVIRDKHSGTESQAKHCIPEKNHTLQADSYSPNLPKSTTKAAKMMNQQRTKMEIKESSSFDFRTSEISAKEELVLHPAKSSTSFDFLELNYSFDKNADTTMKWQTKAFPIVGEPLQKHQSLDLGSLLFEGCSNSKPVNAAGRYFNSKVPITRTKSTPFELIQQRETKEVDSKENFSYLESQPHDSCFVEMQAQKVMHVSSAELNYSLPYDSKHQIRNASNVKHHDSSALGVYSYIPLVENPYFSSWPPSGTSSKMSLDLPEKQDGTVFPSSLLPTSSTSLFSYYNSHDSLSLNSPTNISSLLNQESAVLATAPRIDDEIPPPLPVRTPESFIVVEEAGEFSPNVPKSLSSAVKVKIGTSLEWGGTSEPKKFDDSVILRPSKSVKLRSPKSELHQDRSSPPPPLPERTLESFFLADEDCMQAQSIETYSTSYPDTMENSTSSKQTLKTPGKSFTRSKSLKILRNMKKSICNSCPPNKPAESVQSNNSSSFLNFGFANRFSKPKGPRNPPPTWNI

[4] = target: T3, Tyrosine-protein phosphatase non-receptor type 7 (Homo sapiens, UniProt P35236); type: functional
T3 sequence (P35236 whole entry): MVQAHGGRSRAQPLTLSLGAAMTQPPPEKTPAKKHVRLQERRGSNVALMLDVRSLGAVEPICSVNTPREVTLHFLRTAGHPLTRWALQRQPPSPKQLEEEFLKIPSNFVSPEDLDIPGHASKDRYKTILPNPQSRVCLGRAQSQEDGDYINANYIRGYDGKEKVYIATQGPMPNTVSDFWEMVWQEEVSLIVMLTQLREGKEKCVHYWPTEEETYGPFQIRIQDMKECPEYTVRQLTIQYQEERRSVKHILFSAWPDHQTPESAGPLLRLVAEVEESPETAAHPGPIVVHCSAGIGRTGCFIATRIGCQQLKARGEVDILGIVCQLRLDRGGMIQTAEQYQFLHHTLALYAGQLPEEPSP

[5] = target: T2, Tyrosine-protein phosphatase non-receptor type 22; type: functional; remark: listed apart in the source
[6] = THP-1 cell cytotoxicity, dose response, cytotoxicity control for non-replicating M. tuberculosis project (AID 489025); type: functional
[7] = HepG2 cell cytotoxicity, dose response, cytotoxicity control for non-replicating M. tuberculosis project (AID 489018); type: functional; settings: Mycobacterium tuberculosis
[8] = target: G-protein coupled receptor 55 (Homo sapiens, UniProt Q9Y2T6); assay: GPR55 antagonists blocking LPI-driven arrestin recruitment, primary screen, imaging, U2OS, beta-arrestin-GFP, LPI agonist (AID 2013); type: functional;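 further: antagonist potency measured as reduced agonist-driven arrestin aggregation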
Sequence of G-protein coupled receptor 55 (Q9Y2T6 whole entry): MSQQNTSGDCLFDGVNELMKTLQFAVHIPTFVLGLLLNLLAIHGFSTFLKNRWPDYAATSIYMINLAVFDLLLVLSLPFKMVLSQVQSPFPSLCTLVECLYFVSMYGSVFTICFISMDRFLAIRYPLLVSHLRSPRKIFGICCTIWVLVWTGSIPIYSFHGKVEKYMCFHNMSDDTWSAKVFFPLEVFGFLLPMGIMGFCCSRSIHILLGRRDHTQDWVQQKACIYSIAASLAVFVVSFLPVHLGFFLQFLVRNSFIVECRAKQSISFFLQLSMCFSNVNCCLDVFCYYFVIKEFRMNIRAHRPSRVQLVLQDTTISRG

[9] = target: DNA dC->dU-editing enzyme APOBEC-3G (Homo sapiens, UniProt Q9HC16); type: functional;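 further: Dose-response counterscreen measuring inhibition of APOBEC3G DNA deaminase activity, run while confirming APOBEC3A inhibitors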
Sequence of DNA dC->dU-editing enzyme APOBEC-3G (Q9HC16 whole entry): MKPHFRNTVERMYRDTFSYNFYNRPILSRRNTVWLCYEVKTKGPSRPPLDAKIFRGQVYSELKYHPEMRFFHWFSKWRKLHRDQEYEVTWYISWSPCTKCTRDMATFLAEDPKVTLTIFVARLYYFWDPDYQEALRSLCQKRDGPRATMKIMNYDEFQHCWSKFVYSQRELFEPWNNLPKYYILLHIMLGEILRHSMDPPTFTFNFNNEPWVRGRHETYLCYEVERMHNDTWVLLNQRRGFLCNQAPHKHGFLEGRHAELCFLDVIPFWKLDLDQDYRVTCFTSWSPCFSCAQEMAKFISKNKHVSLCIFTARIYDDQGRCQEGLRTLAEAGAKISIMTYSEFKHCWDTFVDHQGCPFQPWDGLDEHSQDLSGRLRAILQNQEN

[10] = target: DNA dC->dU-editing enzyme APOBEC-3A (Homo sapiens, UniProt P31941); assay: Dose Response confirmation of small molecule APOBEC3A DNA Deaminase Inhibitors via a fluorescence-based single-stranded DNA deaminase assay. [Related pubchem assays (depositor defined):AID493011, AID493024]; type: functional
Sequence of DNA dC->dU-editing enzyme APOBEC-3A (P31941 whole entry): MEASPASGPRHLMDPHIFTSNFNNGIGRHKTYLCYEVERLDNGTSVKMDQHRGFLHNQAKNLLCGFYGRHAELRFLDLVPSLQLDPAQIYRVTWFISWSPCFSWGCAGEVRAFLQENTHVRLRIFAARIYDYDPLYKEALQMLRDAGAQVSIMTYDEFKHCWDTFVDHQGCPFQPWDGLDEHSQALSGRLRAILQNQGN

[11] = cells; type: functional
[12] = tested on: H4; assay: Luminescence Cell-Based Dose Response HTS to Identify Activators of 5'UTR Stem-Loop Driven Prion Protein mRNA Translation in H4 Neuroglioblastoma Cells. [Related pubchem assays: 1829 (Project Summary), 1814 (Primary HTS)]; type: functional; settings: Homo sapiens
[13] = Luminescence Cell-Based Dose Confirmation HTS to Identify Activators of 5'UTR Stem-Loop Driven Alpha-Synuclein mRNA Translation in H4 Neuroglioblastoma Cells. [Related pubchem assays: 1829 (Project Summary), 1814 (Primary HTS)]; type: functional
[14] = Luminescence Cell-Based Dose Response HTS to Identify Activators of Luciferase Translation or Activity in H4 […] Cells. [Related pubchem assays: 1829 (Project Summary), 1814 (Primary HTS)]; type: functional
[15] = target: T4, Phosphomannomutase 2 (Homo sapiens, UniProt O15305); assay: Counter screen SAR assay for PMM2 inhibitors via a fluorescence intensity assay. [Related pubchem assays (depositor defined):AID1545, AID1574]
T4 sequence (O15305 whole entry): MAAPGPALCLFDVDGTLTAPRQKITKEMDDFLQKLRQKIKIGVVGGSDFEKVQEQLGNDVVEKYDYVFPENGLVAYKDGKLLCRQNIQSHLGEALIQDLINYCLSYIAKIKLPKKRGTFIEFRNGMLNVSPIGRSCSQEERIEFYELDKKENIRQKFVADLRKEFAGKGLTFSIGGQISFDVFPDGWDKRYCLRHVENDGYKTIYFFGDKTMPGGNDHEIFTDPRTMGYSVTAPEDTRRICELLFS

[16] = target: T5, Mannose-6-phosphate isomerase (Homo sapiens, UniProt P34949); assay: PMI enzyme inhibitors, confirmation, biochemical, fluorescence intensity (AID 1535)
T5 sequence (P34949 whole entry): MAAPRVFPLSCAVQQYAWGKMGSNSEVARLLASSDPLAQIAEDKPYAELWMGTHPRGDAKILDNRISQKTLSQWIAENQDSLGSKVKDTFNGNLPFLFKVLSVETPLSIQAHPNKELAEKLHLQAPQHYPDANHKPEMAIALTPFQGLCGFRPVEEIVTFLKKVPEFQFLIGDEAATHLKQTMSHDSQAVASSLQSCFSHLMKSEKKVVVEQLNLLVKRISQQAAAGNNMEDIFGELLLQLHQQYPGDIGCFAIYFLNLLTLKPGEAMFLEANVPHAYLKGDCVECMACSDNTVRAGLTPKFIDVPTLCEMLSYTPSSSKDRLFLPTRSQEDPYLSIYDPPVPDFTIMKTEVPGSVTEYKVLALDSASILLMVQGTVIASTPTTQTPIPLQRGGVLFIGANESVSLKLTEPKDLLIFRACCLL

[17] = target: Tumor necrosis factor (Homo sapiens, UniProt P01375); assay: TNFa-triggered NF-kB activation inhibitors, SAR follow-up, cell-based, revised (AID 2337); type: functional
Sequence of Tumor necrosis factor (P01375 whole entry, the tested form may be a part): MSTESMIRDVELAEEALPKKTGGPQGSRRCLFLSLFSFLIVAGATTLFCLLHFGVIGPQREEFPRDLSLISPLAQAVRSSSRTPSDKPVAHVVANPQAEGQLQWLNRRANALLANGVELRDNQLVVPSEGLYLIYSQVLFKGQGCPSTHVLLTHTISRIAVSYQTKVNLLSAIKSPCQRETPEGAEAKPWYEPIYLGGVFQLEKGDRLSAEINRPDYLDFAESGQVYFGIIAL

[18] = target: T6, Nucleotide-binding oligomerization domain-containing protein 1 (Homo sapiens, UniProt Q9Y239); assay: NOD1 signaling inhibitors, SAR follow-up, revised (AID 2333); type: functional
T6 sequence (Q9Y239 whole entry): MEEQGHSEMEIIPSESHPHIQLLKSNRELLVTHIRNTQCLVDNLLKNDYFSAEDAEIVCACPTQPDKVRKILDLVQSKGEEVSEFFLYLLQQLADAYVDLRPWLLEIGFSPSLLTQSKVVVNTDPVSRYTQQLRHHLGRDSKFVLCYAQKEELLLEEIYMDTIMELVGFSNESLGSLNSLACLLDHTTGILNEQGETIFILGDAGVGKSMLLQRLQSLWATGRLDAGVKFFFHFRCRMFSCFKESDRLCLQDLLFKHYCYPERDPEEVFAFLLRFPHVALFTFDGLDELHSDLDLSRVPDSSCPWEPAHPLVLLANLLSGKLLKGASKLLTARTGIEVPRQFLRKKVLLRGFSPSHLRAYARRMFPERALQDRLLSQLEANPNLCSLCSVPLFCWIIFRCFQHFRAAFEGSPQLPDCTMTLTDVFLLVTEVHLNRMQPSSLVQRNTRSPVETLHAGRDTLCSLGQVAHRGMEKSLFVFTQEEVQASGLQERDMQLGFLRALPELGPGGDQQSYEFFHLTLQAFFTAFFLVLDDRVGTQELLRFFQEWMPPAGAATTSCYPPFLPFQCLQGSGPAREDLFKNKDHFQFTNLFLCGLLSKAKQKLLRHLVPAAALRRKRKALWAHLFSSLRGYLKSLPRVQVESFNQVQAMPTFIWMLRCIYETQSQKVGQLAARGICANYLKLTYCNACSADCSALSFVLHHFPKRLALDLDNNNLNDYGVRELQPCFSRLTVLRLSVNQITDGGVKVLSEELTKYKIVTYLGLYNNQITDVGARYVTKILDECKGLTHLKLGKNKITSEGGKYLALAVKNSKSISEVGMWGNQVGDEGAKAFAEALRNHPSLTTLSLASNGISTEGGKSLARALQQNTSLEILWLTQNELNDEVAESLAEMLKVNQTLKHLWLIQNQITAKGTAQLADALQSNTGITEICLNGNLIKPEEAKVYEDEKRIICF

[19] = tested on: HEK293; assay: cells; settings: Homo sapiens;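 further: cells exposed to compound for 14 hours overnight before viability readout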
[20] = tested on: H9c2; assay: cells; type: functional, cell-based; settings: Rattus norvegicus, H9c2, Myocardium;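 further: confirmatory concentration-response retest of ultra-high-throughput screening hits for modulation of myocardial damage; cell death induced by hydrogen peroxide oxidative stress; compound pretreatment for 60 min then peroxide exposure for 2 h; potency is for protecting the cells against peroxide damage rather than for killing them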
[21] = inhibitors of firefly luciferase expression or activity, dose response, H4 neuroglioma cells, luminescence (AID 1990); type: functional, cell-based
[22] = Luminescence Cell-Based Dose Response HTS to Identify Inhibitors of 5'UTR Stem-Loop Driven Prion Protein mRNA Translation in H4 Neuroglioblastoma Cells. [Related pubchem assays: 1827 (Project Summary), 1813 (Primary HTS)]; type: functional
[23] = inhibitors of SNCA 5'UTR-driven reporter translation, confirmation, H4 neuroglioma cells, luminescence (AID 1988); type: functional, cell-based
[24] = cytotoxicity in HEK-293T cells, dose response, cytotoxicity control for TCR NF-kB inhibitor project, luminescence, T-cell screen hits (AID 489026); type: functional, cell-based;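 further: cells exposed to compound about 14 hours before the viability readout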
[25] = C. albicans growth with fluconazole, confirmation, fluorescence, retest (AID 2467); type: functional, cell-based
[26] = NIH-3T3 fibroblast cytotoxicity, dose response, cytotoxicity control, cell-based, fluorescence, Alamar Blue, secondary assay (AID 2327); type: functional;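 further: NIH-3T3 mouse fibroblasts cultured with fluconazole at 8 µg/mL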

COc1ccc(CC(=O)Nc2ccc(-c3nnc(-c4ccccc4)o3)cc2)cc1OC
IC50 [1]: > 64 µM (inactive)

O=C(O)C1CCCCC1C(=O)Nc1ccc(F)c(F)c1 (stereo not drawn)
IC50 [2]: 37.8 µM (active)
IC50 [3]: > 79.4 µM (inactive)
IC50 [4]: > 79.4 µM (inactive)
IC50 [5]: > 79.4 µM (inactive)

O=C(NNC1=C(C(=O)C(F)(F)F)CCC1)c1ccccc1Cl
CC50 [6]: 13.6 µM (active)
CC50 [7]: > 20 µM (active)

CCCCCn1c(C(Cc2ccccc2)NC(C)=O)nc2ccccc21 (stereo not drawn)
IC50 [8]: 4.08 µM (active)

O=C(CNC(=O)c1ccc(Cl)cc1)NCC(F)(F)F
IC50 [3]: > 79.4 µM (inactive)
IC50 [4]: > 79.4 µM (inactive)
IC50 [5]: > 79.4 µM (inactive)

CCSc1nnc(NC(=O)C2CCCCC2C(=O)O)s1 (stereo not drawn)
IC50 [3]: > 79.4 µM (inactive)
IC50 [4]: > 79.4 µM (inactive)
IC50 [5]: > 79.4 µM (inactive)

Cc1n(CC(O)COCc2ccccc2)c2ccccc2[n+]1C (stereo not drawn)
IC50 [9]: 5.05 µM (active)
IC50 [10]: 2.82 µM (active)

O=C(CN1CCC(NC(=O)c2cccc(F)c2)CC1)Nc1ccc(Br)cc1
IC50 [11]: 47.8 µM (active)

CCCn1nc(NC(=O)COC)c2cc3cc(C)ccc3nc21
EC50 [12]: > 120 µM (inconclusive)
IC50 [9]: 2.89 µM (active)
IC50 [10]: 2.71 µM (active)
EC50 [13]: 3.88 µM (active)
EC50 [14]: 12.9 µM (active)

S=C(Nc1cccc(Cl)c1Cl)N1CCC2(CC1)OCCO2
IC50 [1]: 50 µM (inactive)

Clc1nss/c1=N\c1nccs1
IC50 [15]: > 100 µM (inactive)
IC50 [16]: 32.9 µM (active) and 4.34 µM (active)

O=c1c2ccccc2sn1-c1nc2ccc(SC(F)F)cc2s1
IC50 [15]: > 100 µM (inactive)
IC50 [16]: > 50 µM (inactive)

O=c1c2ccccc2sn1-c1ncc(Br)s1
IC50 [15]: > 100 µM (inactive)
IC50 [16]: > 50 µM (inactive)

COc1ccc(C(=O)Nc2sc3c(c2C(=O)O)CC(C)(C)OC3)cc1OC
IC50 [17]: > 20 µM (inactive)
IC50 [18]: 15.1 µM (active)
IC50 [19]: > 20 µM (inactive)

O=C(COc1ccc(F)cc1)N/N=C/c1cccc2cccnc12
IC50 [11]: 17.2 µM (active)
CC50 [6]: 24.8 µM (active)
IC50 [20]: 20.8 µM (active)

CC[n+]1cc(C)ccc1C=Cc1ccc(N(C)C)cc1
EC50 [21]: 11.7 µM (active)
EC50 [22]: 65.4 µM (active)
IC50 [9]: 4.02 µM (active)
EC50 [23]: 10.4 µM (active)
IC50 [10]: 2.73 µM (active)
IC50 [24]: > 80 µM (inactive)
EC50 [25]: 1.25 µM (active)
EC50 [26]: 58.6 µM (active)

Source: ChEMBL document CHEMBL1201862, “PubChem BioAssay data set” (2004)
